Experimental data taken from US9090593B2, “Bicyclic compounds as Pim inhibitors” (AMGEN INC., priority 2010, dated 2015).
Read-outs that look alike come from different tables or passages of the source.

How the values were obtained:
[1] = biological target: T1, full length recombinant Pim-1 protein (Homo sapiens, UniProt P11309); assay: Pim-1 enzyme assay (HTRF, phosphorylation of biotinylated-BAD (S112) peptide); type: biochemical; settings: read-out: Pim_1_IC50
T1 construct: by full length recombinant Pim-1, Pim-2, or Pim-3 protein; hexahistidine tag followed by a thrombin cleavage site (N); made in house; host or cells: Sf9 (baculovirus) or E. coli (pET28)
Method in brief: (§1)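 Kinase: full-length human Pim-1/Pim-2, His6-thrombin tagged. Substrate biotin-BAD (S112) peptide. Buffer 60 mM Hepes pH 7.0, 0.05% BSA, 2 mM DTT. Stop 3 mM EDTA. Detection HTRF (Eu anti-pBAD/SA-APC). IC50 by 4-parameter logistic on POC.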

[2] = biological target: T2, full length recombinant Pim-2 protein (Homo sapiens, UniProt Q9P1W9); assay: Pim-2 enzyme assay (HTRF, phosphorylation of biotinylated-BAD (S112) peptide); type: biochemical; settings: read-out: Pim2_IC50
T2 construct: by full length recombinant Pim-1, Pim-2, or Pim-3 protein; hexahistidine tag followed by a thrombin cleavage site (N); made in house; host or cells: Sf9 (baculovirus) or E. coli (pET28)
Method in brief: as §1

[3] = biological target: T3, full length recombinant Pim-3 protein (Homo sapiens, UniProt Q86V86); assay: Pim-3 enzyme assay (HTRF, phosphorylation of biotinylated-BAD (S112) peptide); type: biochemical; settings: read-out: Pim3 IC50
T3 construct: by full length recombinant Pim-1, Pim-2, or Pim-3 protein; purchased Millipore (UK)
Excerpt: Pim-3 was purchased from Millipore (UK).
The phosphorylation of biotinylated-BAD (S112) peptide by full length recombinant Pim-1, Pim-2, or Pim-3 protein was detected with streptavidin:Allophycocyanin (APC) conjugate and a europium (Eu) labeled antibody directed against phosphorylated-BAD (S112). […] The fluorescence is directly proportional to the amount of phosphorylated BAD peptide present in the reaction.
A reference compound was included on each assay plate in order to validate that plate; on one plate of every assay run, two additional reference compounds were included.
The final buffer conditions were as follows: 60 mM Hepes, pH 7.0, 0.05% BSA, 2 mM DTT. […] The reaction was stopped by the addition of 3 mM EDTA, and fluorescence was measured by an HTRF® Rubystar microplate reader. For each plate, percent of control (POC) values were calculated for each well. Values for the IC50 IP were estimated using a standard 4-parameter logistic model.

[4] = biological target: T4, Pim-1 stably transfected into the U2OS human osteogenic sarcoma line (Homo sapiens, UniProt P11309); assay: Pim cell assay, phospho-BAD normalized against total BAD, U2OS stably transfected with Pim-1; type: cell-based
T4 construct: expressed in transfected cells; host or cells: U2OS human osteogenic sarcoma line
Method in brief: (§2)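 U2OS cells stably expressing Pim-1 or Pim-2 were plated overnight at 37 °C, then dosed over a 10-point curve (final 0.3% DMSO; DMSO alone as high control). Lysates assayed for phospho- and total BAD by Meso Scale immunoassay; % phosphoprotein = (2×phospho)/(phospho+total)×100.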

[5] = biological target: T5, Pim-2 stably transfected into the U2OS human osteogenic sarcoma line (Homo sapiens, UniProt Q9P1W9); assay: Pim cell assay, phospho-BAD normalized against total BAD, U2OS stably transfected with Pim-2; type: cell-based
T5 construct: expressed in transfected cells; host or cells: U2OS human osteogenic sarcoma line
Method in brief: as §2

[6] = U2OS stably transfected with Pim-1, phospho-BAD normalized against total BAD, 29 min incubation, read-out: Pim1_Cell_IC50_
[7] = U2OS stably transfected with Pim-2, phospho-BAD normalized against total BAD, 29 min incubation, read-out: Pim2_Cell_IC50_
[8] = U2OS cells stably transfected with Pim-1, phospho-BAD, high dose […], read-out: Pim1_Cell_IC50
[9] = U2OS cells stably transfected with Pim-2, phospho-BAD, high dose […], read-out: Pim2_Cell_IC50

T5 sequence (Q9P1W9 whole entry): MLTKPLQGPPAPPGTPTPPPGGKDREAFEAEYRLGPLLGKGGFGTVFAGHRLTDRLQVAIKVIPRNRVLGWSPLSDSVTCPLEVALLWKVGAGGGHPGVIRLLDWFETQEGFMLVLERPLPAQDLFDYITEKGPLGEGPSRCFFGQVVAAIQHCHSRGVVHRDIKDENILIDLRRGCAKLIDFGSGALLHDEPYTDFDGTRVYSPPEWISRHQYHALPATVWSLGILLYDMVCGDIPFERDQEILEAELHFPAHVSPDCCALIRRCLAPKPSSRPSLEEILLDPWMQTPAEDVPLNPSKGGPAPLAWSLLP
T2 sequence (Q9P1W9 whole entry): as above
T1 sequence (P11309 whole entry): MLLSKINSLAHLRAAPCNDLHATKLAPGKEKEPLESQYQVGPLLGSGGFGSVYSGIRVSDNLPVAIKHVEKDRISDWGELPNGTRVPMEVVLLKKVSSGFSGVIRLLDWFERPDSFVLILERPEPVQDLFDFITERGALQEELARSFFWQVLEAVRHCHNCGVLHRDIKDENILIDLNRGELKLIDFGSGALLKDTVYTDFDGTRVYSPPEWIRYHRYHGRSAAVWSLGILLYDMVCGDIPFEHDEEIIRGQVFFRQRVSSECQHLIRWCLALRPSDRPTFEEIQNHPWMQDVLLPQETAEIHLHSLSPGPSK
T4 sequence (P11309 whole entry): as above

Structure (SMILES) | IC50 ([1]; enzyme assay, Pim-1) [nM] | IC50 ([2]; enzyme assay, Pim-2) [nM] | IC50 [3] [nM] | IC50 [1] [nM] | IC50 [2] [nM] | IC50 [4, 6] [nM] | IC50 [5, 7] [nM] | IC50 [4, 8] [nM] | IC50 [5, 9] [nM]
CC(C)Oc1cccc(-c2ccc3[nH]nc(-c4cncc(O[C@@H]5CCCNC5)n4)c3c2)n1 [Example 144, 5-(6-(1-methylethoxy)-2-pyridinyl)-3-(6-((3R)-3-piperidinyloxy)-2-pyrazinyl)-1H-indazole] | 27 | 252 | 26 | – | – | – | – | – | –
Cc1ccc(-c2c[nH]c3ccc(-c4cncc(OC(C)C)n4)cc23)nc1 [Example 219, 5-(6-(1-methylethoxy)-2-pyrazinyl)-3-(5-methyl-2-pyridinyl)-1H-indole] | 1130 | > 3000 | 692 | – | – | – | – | – | –
NC1CCN(c2cncc(-c3n[nH]c4ccc(-c5c(F)cccc5F)cc34)c2)CC1 [Example 35, 1-(5-(5-(2,6-difluorophenyl)-1H-indazol-3-yl)pyridin-3-yl)piperidin-4-amine] | 124 | 2300 | 104 | – | – | – | – | – | –
Cn1cc(-c2ccc3[nH]nc(-c4cncc(O[C@@H]5CCCNC5)n4)c3c2)cn1 [Example 129, 5-(1-methyl-1H-pyrazol-4-yl)-3-(6-((3R)-3-piperidinyloxy)-2-pyrazinyl)-1H-indazole] | 3 | 30 | 3 | – | – | – | – | – | –
COc1cncc(-c2ccc3[nH]nc(-c4cncc(OC)c4)c3c2)c1 [Example 29, 3,5-Bis(5-methoxypyridin-3-yl)-1H-indazole] | 227 | 1010 | 172 | – | – | – | – | – | –
CC(C)Oc1cncc(-c2ccc3[nH]cc(-c4cccc(N5CCCC5=O)n4)c3c2)n1 [Example 229, 1-(6-(5-(6-(1-methylethoxy)-2-pyrazinyl)-1H-indol-3-yl)-2-pyridinyl)-2-pyrrolidinone] | 251 | > 3000 | 147 | – | – | – | – | – | –
Nc1ccc2[nH]cc(-c3cncc(N4CCC(N)CC4)n3)c2c1 [Example 233, 3-(6-(4-aminopiperidin-1-yl)pyrazin-2-yl)-1H-indol-5-amine] | 845 | > 3000 | 1760 | – | – | – | – | – | –
N#Cc1ccc2c(-c3ccc4[nH]nc(-c5cncc(N6CCC(N)CC6)n5)c4c3)ccnc2c1 [Example 112, 4-(3-(6-(4-amino-1-piperidinyl)-2-pyrazinyl)-1H-indazol-5-yl)-7-quinolinecarbonitrile] | 32 | 521 | 116 | – | – | – | – | – | –
COc1cncc(-c2c[nH]c3ccc(-c4cncc(OC(C)C)n4)cc23)n1 [Example 224, 3-(6-methoxy-2-pyrazinyl)-5-(6-(1-methylethoxy)-2-pyrazinyl)-1H-indole] | 216 | 2270 | 126 | – | – | – | – | – | –
NC(=O)c1ccc2[nH]cc(-c3cncc(N4CCC(N)CC4)n3)c2c1 [Example 238, 3-(6-(4-aminopiperidin-1-yl)pyrazin-2-yl)-1H-indole-5-carboxamide] | 107 | 755 | 311 | – | – | – | – | – | –
c1cc2[nH]nc(-c3cncc(O[C@@H]4CCCNC4)n3)c2cc1C1CCCOC1 (stereo partly drawn) [Example 156, 3-(6-((3R)-3-piperidinyloxy)-2-pyrazinyl)-5-(tetrahydro-2H-pyran-3-yl)-1H-indazole] | 49 | 144 | 66 | – | – | – | – | – | –
Cc1c(N)cccc1-c1ccc2[nH]nc(-c3cncc(N4CCC(N)CC4)n3)c2c1 [Example 103, 1-(6-(5-(3-amino-2-methylphenyl)-1H-indazol-3-yl)-2-pyrazinyl)-4-piperidinamine] | 34 | 224 | 68 | – | – | – | – | – | –
Fc1cccc(F)c1-c1ccc2[nH]nc(-c3cncc(N4CCCC4)n3)c2c1 [Example 170, 5-(2,6-difluorophenyl)-3-(6-(1-pyrrolidinyl)-2-pyrazinyl)-1H-indazole] | 153 | > 3000 | 187 | – | – | – | – | – | –
Cc1ccnc(-c2c[nH]c3ccc(-c4cncc(OC(C)C)n4)cc23)c1 [Example 216, 5-(6-(1-methylethoxy)-2-pyrazinyl)-3-(4-methyl-2-pyridinyl)-1H-indole] | 601 | 2150 | 245 | – | – | – | – | – | –
c1cc2[nH]nc(-c3cncc(O[C@@H]4CCCNC4)n3)c2cc1-c1ccc2nncn2c1 [Example 145, 6-(3-(6-((3R)-3-piperidinyloxy)-2-pyrazinyl)-1H-indazol-5-yl)[1,2,4]triazolo[4,3-a]pyridine] | 23 | 496 | 80 | – | – | – | – | – | –
Brc1ccc2[nH]nc(-c3cncc(O[C@@H]4CCCNC4)n3)c2c1 [Example 135, 5-bromo-3-(6-((3R)-3-piperidinyloxy)-2-pyrazinyl)-1H-indazole] | 83 | 227 | 82 | – | – | – | – | – | –
NC1CCN(c2cncc(-c3n[nH]c4ccc(-c5cccc6c5C5(CCOCC5)CN6)cc34)n2)CC1 [Example 106, 1-(6-(5-(1,2,2′,3′,5′,6′-hexahydrospiro[indole-3,4′-pyran]-4-yl)-1H-indazol-3-yl)-2-pyrazinyl)-4-piperidinamine] | 499 | 897 | 278 | – | – | – | – | – | –
CN1CCOc2cc(-c3ccc4[nH]cc(-c5cncc(O[C@@H]6CCCNC6)n5)c4c3)ccc21 [Example 347] | – | – | – | 2 | 16 | 273 | 9690 | – | –
c1cc2cc(-c3ccc4[nH]cc(-c5cncc(O[C@@H]6CCCNC6)n5)c4c3)cnc2[nH]1 [Example 336] | – | – | – | 8 | 33 | 857 | > 10000 | – | –
NC1CCN(c2cncc(-c3n[nH]c4ccc(-c5cnc6[nH]ccc6c5)cc34)n2)CC1 [Example 57, 1-(6-(5-(1H-pyrrolo[2,3-b]pyridin-5-yl)-1H-indazol-3-yl)-2-pyrazinyl)-4-piperidinamine] | 1 | 10 | – | – | – | – | – | 605 | > 31600
c1cc2[nH]nc(-c3cncc(O[C@H]4CNCCC45CC5)n3)c2cc1C1CCOCC1 [Example 264, 3-(6-((4R)-6-azaspiro[25]oct-4-yloxy)-2-pyrazinyl)-5-(tetrahydro-2H-pyran-4-yl)-1H-indazole-2,2,2-trifluoroacetate] | – | – | – | 6 | 15 | 276 | > 10000 | – | –
CC(C)Oc1cncc(-c2n[nH]c3ccc(-c4cncc(C5CC5)n4)cc23)n1 [Example 381] | – | – | – | 4 | 37 | 772 | > 31600 | – | –
Nc1ccc(-c2ccc3[nH]cc(-c4cncc(O[C@@H]5CCCNC5)n4)c3c2)cc1OC(F)(F)F [Example 341] | – | – | – | 9 | 69 | 1270 | > 15800 | – | –
CC(C)OC(=O)c1ccc2[nH]nc(-c3cncc(O[C@@H]4CCCNC4)n3)c2c1 [Example 477] | – | – | – | 8 | 126 | 348 | 20300 | – | –
COc1cncc(-c2ccc3[nH]nc(-c4cncc(N5CCC(N)CC5)n4)c3c2)c1 [Example 79, 1-(6-(5-(5-methoxy-3-pyridinyl)-1H-indazol-3-yl)-2-pyrazinyl)-4-piperidinamine] | 1 | 9 | – | – | – | – | – | 182 | 3890
CC1(C)CNCCC1Oc1cncc(-c2n[nH]c3ccc(-c4c(F)cccc4F)cc23)n1 (single isomer, unassigned) [Example 432] | – | – | – | 20 | 114 | 2410 | > 31600 | – | –
CC1CCNCC1Oc1cncc(-c2n[nH]c3ccc(-c4c(F)cccc4F)cc23)n1 (single isomer, unassigned) [Example 423] | – | – | – | 17 | 194 | 1660 | > 31600 | – | –
CC(O)c1cccc(-c2ccc3[nH]nc(-c4cncc(O[C@@H]5CCCNC5)n4)c3c2)c1 (stereo partly drawn) [Example 367] | – | – | – | 14 | 27 | 868 | 8800 | – | –
O=C(Nc1ccc(-c2ccc3[nH]cc(-c4cncc(O[C@@H]5CCCNC5)n4)c3c2)cc1)C1CC1 [Example 311] | – | – | – | 8 | 25 | 412 | > 31600 | – | –
